Assay [1] relates to MDA-MB-468. Particulars: 72 h. The method in brief:
(§1)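 In this assay, breast cancer cell lines spent 72 h with compound at 5 concentrations in 10-fold steps over a compound-specific 10,000-fold range. The first readout was cell death by CellTox Green fluorescence, and the second was viability by CellTiter-Glo luminescence, each normalised per plate to 0.1 % DMSO and a positive kill control. EC50 came from the dose-response curves, censored at the top concentration.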

Assay [2] deals with CAL-120. Particulars: 72 h. The method in brief:
as §1

Assay [3] has as its system CAL-51. As to conditions: 72 h. The method in brief:
as §1

The subject of assay [4] is BT-474. Particulars: 72 h. Put shortly:
as §1

Assay [5] concerns CAL-85-1. As to conditions: 72 h. Put shortly:
as §1

The subject of assay [6] is MDA-MB-231. As to conditions: 72 h. Put shortly:
as §1

In assay [7] the test system is HDQ-P1. As to conditions: 72 h. Put shortly: as §1
In assay [8] the test system is MDA-MB-436. As to conditions: 72 h. The method in brief: as §1
For assay [9], the system named is HCC1937. Particulars: 72 h. The method in brief: as §1
The subject of assay [10] is MFM-223. As to conditions: 72 h. Put shortly:
as §1

For assay [11], the system named is MCF-10A. As to conditions: 72 h. The method in brief:
as §1

The subject of assay [12] is DU-4475. As to conditions: 72 h. The method in brief: as §1
Assay [13] has as its system Hs578T. As to conditions: 72 h. The method in brief:
(§2)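 Plates of 384 wells holding compound in 5 µl medium received breast cancer cell lines in 20 µl suspension and were incubated 72 h. CellTiter-Blue (2.5 µl, 2 h, 37 °C) was used for viability, read at 560/590 nm, and every plate was normalised to vehicle and a positive kill control and assessed by Z'-factor. The EC50 derives from a percent-inhibition dose-response curve fit censored at the highest concentration, leaving out rows whose drug sensitivity score was zero.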

The test system of assay [14] is CAL-120. Particulars: 72 h. The method in brief:
as §2
This is another data set of the same source.

Assay [15] deals with MDA-MB-231. As to conditions: 72 h. The method in brief:
as §2
This is another data set of the same source.

For assay [16], the system named is MFM-223. As to conditions: 72 h. Put shortly:
as §2
This is another data set of the same source.

For assay [17], the system named is HCC1143. Particulars: 72 h. Put shortly: as §2
Assay [18] has as its system CAL-51. Particulars: 72 h. The method in brief:
as §2
This is another data set of the same source.

Assay [19] concerns CAL-85-1. As to conditions: 72 h. Put shortly: as §2
The source holds these as a separate data set.

In assay [20] the test system is HDQ-P1. As to conditions: 72 h. Put shortly: as §2
The source holds these as a separate data set.

Assay [21] has as its system MDA-MB-453. As to conditions: 72 h. Put shortly: as §2
The subject of assay [22] is DU-4475. As to conditions: 72 h. Put shortly:
as §2
The source holds these as a separate data set.

Assay [23] deals with MDA-MB-231. In words: normalised viability (% of control), CellTiter-Blue; higher = more viable cells (about 100 = DMSO control). Particulars: incubation time: 72 h. Put shortly: (§3)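 Breast cancer cell lines were treated for 72 h in 384-well format and measured by CellTiter-Blue fluorescence at 560/590 nm. Results were normalised per plate to vehicle (100) and a positive kill control (0). The entry is normalised viability at a single listed concentration of the series.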
(In general: Alamar Blue is a resazurin reagent that responds to reducing activity.)

In assay [24] the test system is CAL-51. Described as above. As to conditions: incubation time: 72 h. The method in brief:
as §3

The subject of assay [25] is CAL-85-1. Described as above. Particulars: incubation time: 72 h. Put shortly:
as §3

For assay [26], the system named is HDQ-P1. Described as above. Particulars: incubation time: 72 h. The method in brief:
as §3

Assay [27] concerns CAL-148. The description is as above. Particulars: incubation time: 72 h. Put shortly:
as §3

Assay [28] has as its system MDA-MB-453. The description is as above. As to conditions: incubation time: 72 h. Put shortly:
as §3

Assay [29] relates to DU-4475. The assay is described as above. Particulars: incubation time: 72 h. The method in brief:
as §3

Assay [30] deals with Hs578T. As to conditions: 72 h. Put shortly:
as §1
The source holds these as a separate data set.

Assay [31] relates to BT-549. Particulars: 72 h. Put shortly:
as §1

Assay [32] relates to HCC1143. Particulars: 72 h. The method in brief:
as §1
This is another data set of the same source.

In assay [33] the test system is MDA-MB-468. Particulars: 72 h. The method in brief: as §2
The source holds these as a separate data set.

Assay [34] deals with BT-549. As to conditions: 72 h. Put shortly:
as §2
The source holds these as a separate data set.

The subject of assay [35] is MDA-MB-436. Particulars: 72 h. Put shortly: as §2
The source holds these as a separate data set.

Assay [36] deals with HCC1937. Particulars: 72 h. Put shortly: as §2
This is another data set of the same source.

In assay [37] the test system is HCC1599. As to conditions: 72 h. The method in brief: as §2

As to `Cn1c(=O)c(F)c(Nc2ccc(I)cc2F)c2c(=O)n(C[C@@H](O)CO)cnc21` [TAK-733], the “EC50, CellTiter-Glo” value in assay [1] turned out to be 29.8 nM; in [2], 66.6 nM; in assay [3], 3.04 nM; in [4] it was 33.5 nM; in assay [5], 125 nM; in assay [6], 130 nM. Further, the “EC50, CellTiter-Glo” value turned out to be 6.97 nM in assay [7]; 452 nM in assay [8]; 341 nM in assay [9]; 371 nM in assay [10]; 3.49 nM in [11]; 7.03 nM in assay [12]. Besides, the “EC50, CellTiter-Blue viability” value worked out at 114 nM in [13]; 401 nM in [14]; 4.92 nM in assay [15]; 17.5 nM in [16]; 14.2 nM in [17]; 102 nM in assay [18]. Also, the “EC50, CellTiter-Blue viability” value in [19] was determined as 68.5 nM; in assay [20], 161 nM; in assay [21] it was 249 nM; in [22], 3.59 nM. Moreover, the results for the normalised viability in assay [23] (1 nM), in [23] (100 nM) and in assay [23] (1000 nM) were 89.2%, 36.1% and 33.8%, respectively.
`Cn1c(=O)c(F)c(Nc2ccc(I)cc2F)c2c(=O)n(C[C@@H](O)CO)cnc21` [TAK-733] (1000 nM): the normalised viability in assay [24] is 66%; in assay [25] it was 39.7%; in [26], 60%; in [27] it was 92.8%; in assay [28], 51.2%; in [29], 0.83%.
As to `CCS(=O)(=O)c1cccc(-c2cc(C(=O)NC3CCN(C)CC3)c(C)c3[nH]c4ncc(C)cc4c23)c1` [TAK-901], the “EC50, CellTiter-Glo” value in assay [1] came to 26.2 nM; in [30], 445 nM; in assay [2], 131 nM; in [31] it was 155 nM; in assay [4], 152 nM; in assay [6] it was 144 nM. Also, the “EC50, CellTiter-Glo” value stood at 642 nM in assay [7]; 299 nM in assay [8]; 123 nM in [10]; 130 nM in [32]; 151 nM in [11]. Also, the “EC50, CellTiter-Blue viability” value in assay [33] turned out to be 442 nM; in assay [13], 125 nM; in [14], 94.4 nM; in [34], 126 nM; in [15], 110 nM; in assay [35], 214 nM. The “EC50, CellTiter-Blue viability” value in assay [36] came out at 142 nM; in assay [16] it was 56.6 nM; in assay [17] it was 225 nM; in [37] it was 110 nM; in assay [18], 179 nM; in assay [19], 344 nM. The “EC50, CellTiter-Blue viability” value in assay [20] is 260 nM; in assay [21], 12.8 nM; in assay [22] it was 806 nM. Also, the figures for the normalised viability in [23] (1 nM), in assay [23] (100 nM) and in assay [23] (1000 nM) were 99.4%, 64.9% and 20.6%, respectively.
Consider `CCS(=O)(=O)c1cccc(-c2cc(C(=O)NC3CCN(C)CC3)c(C)c3[nH]c4ncc(C)cc4c23)c1` [TAK-901] (1000 nM), for which the normalised viability came to 23.8% in assay [24]; 30.9% in assay [25]; 16.6% in [26]; 105% in [27]; 40.2% in [28]; 41.2% in assay [29].
As for `Cc1cc(C(C)Nc2ccccc2)c2nc(N3CCOCC3)cc(=O)n2c1` (centres undefined) [TGX-221], the “EC50, CellTiter-Glo” value in [1] is 3560 nM; in [2], > 10000 nM; in assay [3] it was 22.8 nM; in assay [31], 947 nM; in [4], 709 nM.
Turning to `COc1cc(Nc2ncc(F)c(Nc3ccc4c(n3)NC(=O)C(C)(C)O4)n2)cc(OC)c1OC` [Tamatinib], the “EC50, CellTiter-Glo” value in [3] worked out at 2310 nM; in assay [31], 650 nM.
Turning to `C[C@@H]1CCN(C(=O)CC#N)C[C@@H]1N(C)c1ncnc2[nH]ccc12` [Tofacitinib], in assay [3], the “EC50, CellTiter-Glo” value was determined as 52.1 nM.
In the case of `CCCC(CCC)C(=O)O` [Valproic acid], the “EC50, CellTiter-Glo” value in [3] worked out at 441000 nM. Moreover, the normalised viability was 109% in [23] (10 nM), 101% in assay [23] (1000 nM) and 116% in [23] (10000 nM).
In the case of `CCCC(CCC)C(=O)O` [Valproic acid] (10000 nM), the normalised viability in assay [24] turned out to be 91.4%; in assay [25] it was 86.8%; in assay [26] it was 125%; in assay [27] it was 91.5%; in [28], 106%; in assay [29], 82.9%.

The values are drawn from the supplement of paper PMC4862054.
